Patent US12264175B2, “Compositions and methods for capping RNAS” (Verve Therapeutics, Inc., priority 2020, dated 2025)

Columns and labels:
T7 RNA polymerase = T7 RNA polymerase (Escherichia phage T7, UniProt P00573); test: mRNA capping efficiency at adjusted 5′ end initiator-to-NTP molar ratio; format: biochemical; details: FIG. 4
Excerpt: The amount of capped mRNA produced in an IVT reaction is directly proportional to the ratio of cap to NTPs in the reaction mixture (Stepinski, J. et al., RNA. 2006, 7, 1486-1495). The 5′ end initiator-to-NTP ratio in an IVT reaction impacts the amount of mRNA that becomes capped primarily because cap can compete with NTPs for insertion at the 5′ end of mRNA. A typical initiator-to-NTP ratio for a dinucleotide cap structure is 4:1 and a typical molar initiator-to-NTP ratio for a trinucleotide cap structure is 1:1; where NTP represents either GTP, ATP, CTP, UTP, or modified NTPs such as N1-methyl pseudouridine. At both a 4:1 ratio for a dinucleotide cap and 1:1 ratio for a trinucleotide cap, the resultant mRNA will have a mixture of transcripts of which at least 80% are capped at the 5′ end and up to 20% are uncapped, this is also described as a capping efficiency of 80%. Capping efficiency is the measured amount of capped mRNA divided by the total amount of capped mRNA plus uncapped mRNA. Therefore, trinucleotide caps can be considered more efficient capping compounds than dinucleotide caps since less input cap is required to produce a final mRNA product that contains a similar amount of capped 5′ ends. The ability of trinucleotide caps to produce a high (>90%) capping efficiency at a lower initiator-to-NTP ratio than dinucleotide caps, in some instances, can be attributed to the increased affinity of a trinucleotide cap for the DNA template. In some cases, the optimal cap-to-NTP ratio may vary with the composition of the cap structure, wherein modification of cap structures may affect capping efficiency. […]
The amount of capped mRNA relative to the total amount of mRNA that is present, i.e. capping efficiency, can be measured by numerous methods well known in the art. […]

HeLa lysate = test: Translation of capped luciferase mRNA in HeLa lysate in vitro translation kit; format: biochemical; details: luciferase encoding mRNA with the 5′ end motif, luminescence, FIG. 5
Experimental: HeLa cells are cultured in RPMI with 10% FBS at 37° C. under 5% CO2 atmosphere. Cells are plated into an appropriately sized well plate per manufacturer's recommended seeding conditions. After overnight incubation, cells are checked for monolayer formation and then transfected using a transfection agent such as MessengerMAX. Solution A: the desired amount of luciferase mRNA is diluted in OptiMEM and mixed with Solution B: MessengerMAX in OptiMEM. After mixing solutions A and B, the mixture is incubated at room temperature for 20 minutes, and then added dropwise to each well of cells. The cells are then incubated at 37° C. for 12-72 hours to allow for expression of mRNA into protein. Cells are harvested and prepared for measuring luciferase protein levels per Promega luciferase assay system protocol. […] For example, luciferase encoding mRNA with 5′ end region motif, 1007a, was added to a commercially available HeLa lysate in vitro translation kit to produce luciferase protein. Luciferase protein activity as measured by luminescent light production in the presence of a luciferin substrate, was measured with a luminescence-detecting plate reader. Relative light units measured per this assay are proportional to the amount of luciferase protein translated from mRNA. […]

[1] = tested on: primary human liver hepatocytes (hPH); test: ABE protein levels by ELISA after mRNA transfection of primary human hepatocytes; format: cell-based; details: ABE mRNA transfected to hPH cells, FIG. 6
Experimental: Primary human liver hepatocytes (hPH), primary cynomolgus liver hepatocytes (cPH), or primary mouse liver hepatocytes (mPH) are cultured per the manufacturer's protocol. In brief, the cells are thawed and resuspended in hepatocyte thawing medium followed by centrifugation at 100 g for 10 min at 4° C. The supernatant is discarded, and the pelleted cells resuspended in hepatocyte plating medium. Each vial contains ˜5 million cells that are used for plating one 24-well plate. Plated cells are allowed to settle and adhere for 4-6 h in a tissue culture incubator at 37° C. under 5% CO2 atmosphere. After incubation, cells are checked for monolayer formation. The incubating media is then replaced with fresh hepatocyte maintenance media The cells thus are ready for transfection using a transfection agent such as MessengerMAX. Solution A: desired amount of single guide RNA (sgRNA) is mixed with 1:1 wt ratio of mRNA in OptiMEM. Solution B: MessengerMAX in OptiMEM. After mixing solutions A and B, the mixture is incubated at room temperature for 20 minutes, and then the incubated solution is added dropwise to each well of cells. The cells are then allowed to remain at 37° C. for 3 days. […] For example, mRNA with 5′ end region motifs, 1007a and 1107a, were transfected to hPH cells as described above, the cells were lysed, and ABE protein levels were measured by ELISA. […]

Chain of T7 RNA polymerase (P00573 whole entry): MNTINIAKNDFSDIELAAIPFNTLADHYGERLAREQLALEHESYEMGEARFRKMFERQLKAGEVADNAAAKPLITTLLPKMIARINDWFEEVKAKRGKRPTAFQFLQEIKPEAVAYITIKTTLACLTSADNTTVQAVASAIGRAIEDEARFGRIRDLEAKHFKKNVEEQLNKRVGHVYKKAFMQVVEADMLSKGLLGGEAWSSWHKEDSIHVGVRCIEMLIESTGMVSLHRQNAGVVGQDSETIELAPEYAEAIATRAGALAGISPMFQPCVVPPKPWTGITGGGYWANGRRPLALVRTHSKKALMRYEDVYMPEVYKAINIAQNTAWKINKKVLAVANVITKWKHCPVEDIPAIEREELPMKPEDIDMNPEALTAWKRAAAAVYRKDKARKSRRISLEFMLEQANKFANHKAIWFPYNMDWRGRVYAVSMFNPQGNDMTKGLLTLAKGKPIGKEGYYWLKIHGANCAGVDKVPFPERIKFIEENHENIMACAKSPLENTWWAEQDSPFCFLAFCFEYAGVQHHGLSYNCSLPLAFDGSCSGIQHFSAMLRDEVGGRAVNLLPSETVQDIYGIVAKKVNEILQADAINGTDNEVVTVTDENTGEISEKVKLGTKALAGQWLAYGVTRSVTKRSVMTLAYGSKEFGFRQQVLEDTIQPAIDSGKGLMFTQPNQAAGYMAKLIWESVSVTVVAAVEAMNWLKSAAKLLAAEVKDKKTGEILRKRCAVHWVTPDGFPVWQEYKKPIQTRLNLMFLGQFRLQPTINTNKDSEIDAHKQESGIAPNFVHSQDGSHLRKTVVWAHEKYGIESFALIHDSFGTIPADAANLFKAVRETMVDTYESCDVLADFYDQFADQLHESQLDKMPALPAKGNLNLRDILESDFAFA

Q: What does the source list for COC1C(OP([O-])(=S)OCC2OC(n3cnc4c(=O)[nH]c(N)nc43)C(O)C2O)C(COP(=O)(O)OP(=O)(O)OP(=O)(O)OCC2OC(n3c[n+](C)c4c(=O)[nH]c(N)nc43)C(O)C2O)OC1n1cnc2c(N)ncnc21 (stereo not shown) [1007a, m^7G(ppp)Am(ps)G]?
A: capping efficiency (T7 RNA polymerase; initiator-to-NTP ratio ranging from 1:1 down to 1:2.5): > 90%; capping efficiency compared to mRNA capped with 1002a (T7 RNA polymerase; similar production conditions): similar; luciferase activity relative to mRNA with initiator 1002a (HeLa lysate): around 2 x; ABE protein levels as compared to mRNA with 5′ end region motif 1002a [1]: similar
